Holding throughout (type): cell-based
The target of assay [1] is T1, DUB activity in cells (NCI-H929, Z138, MM.1S, A375) (Homo sapiens, UniProt Q93008).
T1 construct: endogenous in cells; host or cells: NCI-H929, Z138, MM.1S, A375
The assay can be described thus: HA-Ubiquitin-Vinylsulfone (HA-Ub-VS) cell labeling assay. To be noted: compound tested at 5 μM; HA-Ub-VS labeling of USP9x in cells. The method, then:
Example B-1: HA-Ubiqutin-Vinylsulfone (HA-Ub-VS) Cell Labeling
Inhibitition of DUB activity is measured in cells (NCI-H929, Z138, MM.1S, A375) using a hemaglutinin-ubiquitin-vinylsulfone (HA-Ub-VS) labeling assay. Briefly, 1-2×10^6 cells are plated in 12-well plates in 1 ml complete growth media and 250 μl of test compound in 0.5% dimethylsulfoxide (or DMSO control) is added to each well. Plates are incubated at 37° C., 5% CO2 for 2-6 hours before cells are harvested into eppendorf tubes, washed once in PBS and resuspended in 100 μl cold lysis buffer (50 mM Tris pH 8, 150 mM NaCl, 0.5% NP-40, 2 mM phenylmethylsulfonyl fluoride and complete protease inhibitor tablet). Resupended cells are frozen on dry ice, then thawed and incubated on ice for 15 minutes. Tubes are centrifuged for 10 minutes at 14,000 rpm at 4° C. and the cleared supernatants transferred to clean tubes. […] The samples are incubated 15-60 min at 37° C. before the addition of SDS gel loading buffer. Proteins are separated by SDS-PAGE, transferred to nitrocellulose and the blot probed with anti-HA antibody and anti-β-actin antibodies. The HA and β-actin antibodies are detected using secondary antibodies coupled to IRdye 800 or IRdye 680 and visualized and quantitated using the LiCor Odyssey machine.
(§1) The following compounds were tested in the above assays at 5 μM: […]

Assay [2] deals with Mcl-1 expression in cells (NCI-H929, Z138, MM.1S, A-375). In words: Analysis of Mcl-1 expression by Western blotting. The following applies: compound tested at 5 μM; Western blot. The method, then: (§2) Example B-2: Analysis of Md-1 Expression and PARP Cleavage
(§3) The ability of test compounds to decrease expression of the tumor promoting protein, Mcl-1, and to induce the inactivation/cleavage of the PARP protein is evaluated in cells (NCI-H929, Z138, MM.1S, A-375) by Western blotting. Cells are plated and treated as described in the HA-Ub-VS cell labeling assay (see above). A portion of the cleared lysate (15-50 μl) is run on an SDS-polyacrylamide gel to separate proteins and then transferred to nitrocellulose. After transfer to nitrocellulose, the proteins are detected by probing the blot with anti-Mcl-1 and anti-PARP antibodies followed by secondary antibodies coupled to IRdye 800 and IRdye 680 and visualization and quantitation using a LiCor Odyssey machine. Activity of the test compound is identified as a significant decrease in Mcl-1 expression relative to the vehicle treated cells and to the appearance of a cleaved fragment of PARP relative to the vehicle-treated cells.
as §1
A general note: A western blot detects proteins with antibodies after separation by electrophoresis.

Assay [3] has as its system PARP cleavage in cells (NCI-H929, Z138, MM.1S, A-375). In words: Analysis of PARP cleavage by Western blotting. To be noted: compound tested at 5 μM; Western blot. The method, then: as §2, §3, §1

T1 sequence (Q93008 whole entry): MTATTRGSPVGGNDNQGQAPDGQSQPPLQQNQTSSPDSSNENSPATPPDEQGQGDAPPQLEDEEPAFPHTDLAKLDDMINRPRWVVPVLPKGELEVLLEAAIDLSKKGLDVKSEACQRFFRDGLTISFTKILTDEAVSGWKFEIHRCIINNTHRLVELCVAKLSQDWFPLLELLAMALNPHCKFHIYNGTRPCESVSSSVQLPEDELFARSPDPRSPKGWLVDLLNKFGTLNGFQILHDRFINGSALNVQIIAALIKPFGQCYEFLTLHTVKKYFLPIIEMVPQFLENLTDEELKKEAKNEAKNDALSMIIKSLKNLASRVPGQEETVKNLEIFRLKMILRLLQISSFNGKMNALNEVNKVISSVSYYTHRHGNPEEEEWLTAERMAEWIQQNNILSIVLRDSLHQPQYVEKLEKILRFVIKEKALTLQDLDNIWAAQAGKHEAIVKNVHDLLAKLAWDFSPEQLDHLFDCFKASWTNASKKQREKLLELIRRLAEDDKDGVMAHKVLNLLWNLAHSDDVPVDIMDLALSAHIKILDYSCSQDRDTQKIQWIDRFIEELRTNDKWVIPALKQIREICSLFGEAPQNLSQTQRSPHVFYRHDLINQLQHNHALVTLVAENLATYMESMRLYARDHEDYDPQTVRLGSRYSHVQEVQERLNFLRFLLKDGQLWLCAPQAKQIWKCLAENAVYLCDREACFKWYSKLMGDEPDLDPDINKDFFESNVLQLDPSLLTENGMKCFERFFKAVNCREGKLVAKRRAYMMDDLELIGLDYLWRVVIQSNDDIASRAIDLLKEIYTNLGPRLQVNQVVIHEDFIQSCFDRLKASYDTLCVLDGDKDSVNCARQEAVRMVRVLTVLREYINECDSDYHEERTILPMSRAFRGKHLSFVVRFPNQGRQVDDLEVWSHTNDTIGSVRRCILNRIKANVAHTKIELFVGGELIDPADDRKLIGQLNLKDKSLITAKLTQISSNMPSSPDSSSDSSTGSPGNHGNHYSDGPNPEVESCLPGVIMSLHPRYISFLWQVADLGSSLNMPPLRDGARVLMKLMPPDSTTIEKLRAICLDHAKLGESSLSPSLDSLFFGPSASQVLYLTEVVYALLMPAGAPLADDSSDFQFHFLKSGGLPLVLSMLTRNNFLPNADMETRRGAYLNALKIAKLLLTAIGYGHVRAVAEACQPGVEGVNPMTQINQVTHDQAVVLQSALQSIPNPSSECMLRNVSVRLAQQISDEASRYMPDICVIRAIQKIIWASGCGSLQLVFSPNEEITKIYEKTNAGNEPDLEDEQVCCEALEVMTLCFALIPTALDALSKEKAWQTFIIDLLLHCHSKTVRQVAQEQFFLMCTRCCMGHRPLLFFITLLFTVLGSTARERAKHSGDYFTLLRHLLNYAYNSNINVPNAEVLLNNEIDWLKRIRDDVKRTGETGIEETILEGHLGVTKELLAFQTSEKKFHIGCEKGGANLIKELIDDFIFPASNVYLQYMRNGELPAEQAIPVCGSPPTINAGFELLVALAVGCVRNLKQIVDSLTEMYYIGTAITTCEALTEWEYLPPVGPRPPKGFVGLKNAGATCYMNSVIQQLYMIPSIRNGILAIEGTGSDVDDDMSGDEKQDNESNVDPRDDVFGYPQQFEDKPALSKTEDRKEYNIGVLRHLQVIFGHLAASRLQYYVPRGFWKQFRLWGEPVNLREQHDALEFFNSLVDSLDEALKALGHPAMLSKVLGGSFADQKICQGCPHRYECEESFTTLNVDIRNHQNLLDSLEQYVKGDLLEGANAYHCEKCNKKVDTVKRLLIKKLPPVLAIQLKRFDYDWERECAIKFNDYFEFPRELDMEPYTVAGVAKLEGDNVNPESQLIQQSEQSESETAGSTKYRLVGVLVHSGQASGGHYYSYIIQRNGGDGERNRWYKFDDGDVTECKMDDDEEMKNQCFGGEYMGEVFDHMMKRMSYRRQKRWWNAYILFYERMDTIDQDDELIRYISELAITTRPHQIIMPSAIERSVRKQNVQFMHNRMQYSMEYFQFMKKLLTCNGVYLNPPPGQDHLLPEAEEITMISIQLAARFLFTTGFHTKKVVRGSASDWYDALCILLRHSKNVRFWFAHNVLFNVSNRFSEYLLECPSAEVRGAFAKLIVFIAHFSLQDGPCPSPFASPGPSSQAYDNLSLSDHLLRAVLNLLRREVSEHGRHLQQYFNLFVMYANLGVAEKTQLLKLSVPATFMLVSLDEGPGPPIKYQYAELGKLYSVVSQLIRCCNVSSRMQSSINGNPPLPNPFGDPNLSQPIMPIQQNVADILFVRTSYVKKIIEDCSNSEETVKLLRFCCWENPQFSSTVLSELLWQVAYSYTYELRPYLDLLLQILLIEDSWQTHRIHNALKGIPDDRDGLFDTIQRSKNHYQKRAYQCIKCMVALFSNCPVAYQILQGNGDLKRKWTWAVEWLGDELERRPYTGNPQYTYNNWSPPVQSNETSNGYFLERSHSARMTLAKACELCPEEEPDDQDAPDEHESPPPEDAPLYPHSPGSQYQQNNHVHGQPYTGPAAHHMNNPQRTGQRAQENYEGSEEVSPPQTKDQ

One may read the inhibition as how much of the control response was suppressed. For `N#C/C(=C\c1ncc(Br)cc1Br)C(=O)NC1(c2ccccc2)CCCCCC1` [Compound 25, (E)-2-Cyano-3-(3,5-dibromopyridin-2-yl)-N-(1-phenylcycloheptyl)acrylamide], the inhibition at 5 µM in assay [1] and in assay [2] was ≥ 75% in each case. In addition, in assay [3], the “PARP cleavage % Inhibition” value was “A (A is ≧75% inhibition)”.
For the compound `N#C/C(=C\c1ncc(Br)cc1Br)C(=O)NC1(c2ccc(-c3cccnc3)cc2)CCCC1` [Compound 39, (E)-2-cyano-3-(3,5-dibromopyridin-2-yl)-N-(1-(4-(pyridin-3-yl)phenyl)cyclopentyl)acrylamide], the inhibition at 5 µM in assay [1] is 50 to 75%; in assay [2] it was ≥ 75%. In addition, the “PARP cleavage % Inhibition” value in assay [3] is “A (A is ≧75% inhibition)”.
For `N#C/C(=C\c1ncc(Br)cc1Br)C(=O)NC1(c2ccc(-c3ccc(N4CCOCC4)nc3)cc2)CCCC1` [Compound 51, (E)-2-cyano-3-(3,5-dibromopyridin-2-yl)-N-(1-(4-(6-morpholinopyridin-3-yl)phenyl)cyclopentyl)acrylamide], the inhibition at 5 µM in assay [1] and in assay [2] was 25 to 50% in each case. Also, in assay [3], the “PARP cleavage % Inhibition” value is listed as “A (A is ≧75% inhibition)”.
For `CCOC(=O)c1ccc(-c2cccc(/C=C(\C#N)C(=O)NC3(c4ccccc4)CCCC3)n2)cc1` [Compound 31, (E)-ethyl 4-(6-(2-cyano-3-oxo-3-((1-phenylcyclopentyl)amino)prop-1-en-1-yl)pyridin-2-yl)benzoate], the results for the inhibition at 5 µM in assay [1] and in assay [2] were 25 to 50% and < 25%, respectively. In assay [3], the “PARP cleavage % Inhibition” value was “B (B is 50% to 75% inhibition)”.
On the same counts, the results for `N#C/C(=C\c1cccc(-c2ccc(CC(=O)O)cc2)n1)C(=O)NC1(c2ccccc2)CCCC1` [Compound 40] are < 25%, < 25% and “C (C is 25% to 50% inhibition)”.
As for `COC(=O)/C=C/c1cccc(/C=C(\C#N)C(=O)NC2(c3ccccc3)CCCC2)n1` [Compound 42, (E)-methyl 3-(6-((E)-2-cyano-3-oxo-3-((1-phenylcyclopentyl)amino)prop-1-en-1-yl)pyridin-2-yl)acrylate], the inhibition at 5 µM in assay [1] was 50 to 75%; in assay [2], ≥ 75%. Moreover, the “PARP cleavage % Inhibition” value in assay [3] was “A (A is ≧75% inhibition)”.
Take `N#C/C(=C\c1cccc(-c2cccc(C(=O)O)c2)n1)C(=O)NC1(c2ccccc2)CCCC1` [Compound 71, (E)-3-(6-(2-cyano-3-oxo-3-((1-phenylcyclopentyl)amino)prop-1-en-1-yl)pyridin-2-yl)benzoic acid]: the inhibition at 5 µM in assay [1] and in assay [2] was < 25% each time. In assay [3], the “PARP cleavage % Inhibition” value is reported as “D (D is <25% inhibition)”.
On to `N#C/C(=C\c1ccc(Cl)c(Cl)c1)C(=O)NC1(c2ccccc2)CCCC1` [Compound 11, (E)-3-(3,4-Dichlorophenyl)-2-cyano-N-(1-phenylcyclopentyl)acrylamide], for which the inhibition at 5 µM in assay [1] and in assay [2] was 25 to 50% in each case. Besides, in assay [3], the “PARP cleavage % Inhibition” value is recorded as “B (B is 50% to 75% inhibition)”.
Regarding `N#C/C(=C\c1cccc(Br)n1)C(=O)NC1(c2ccccc2)CCCC1` [Compound 1, (E)-3-(6-Bromopyridin-2-yl)-2-cyano-N-(1-phenylcyclopentyl)acrylamide], the inhibition at 5 µM in assay [1] and in assay [2] was ≥ 75% in each case. The “PARP cleavage % Inhibition” value in assay [3] is “A (A is ≧75% inhibition)”.
Turning to `N#C/C(=C\c1cccc(-c2ccc(OCC(=O)O)cc2)n1)C(=O)NC1(c2ccccc2)CCCC1` [Compound 36], the inhibition at 5 µM in assay [1] and in assay [2] was < 25% in each case. The “PARP cleavage % Inhibition” value in assay [3] was “D (D is <25% inhibition)”.
Consider `N#C/C(=C\c1ncc(Br)cc1Br)C(=O)NC1(c2ccncc2)CCCC1` [Compound 3-3, (E)-2-cyano-3-(3,5-dibromopyridin-2-yl)-N-(1-(pyridin-4-yl)cyclopentyl)acrylamide], for which the results for the inhibition at 5 µM in assay [1] and in assay [2] were 50 to 75% and ≥ 75%, respectively. In addition, the “PARP cleavage % Inhibition” value in assay [3] is given as “A (A is ≧75% inhibition)”.
As for `N#C/C(=C\c1cccc(N2CCCC2)n1)C(=O)NC1(c2ccccc2)CCCC1` [Compound 83, (E)-2-cyano-N-(1-phenylcyclopentyl)-3-(6-(pyrrolidin-1-yl)pyridin-2-yl) acrylamide], the inhibition at 5 µM in assay [1] and in assay [2] was < 25% each time. In assay [3], the “PARP cleavage % Inhibition” value is recorded as “D (D is <25% inhibition)”.
For the compound `COc1ccc(COc2ccc(C3(NC(=O)/C(C#N)=C/c4cccc(Br)n4)CCCC3)cc2)cc1` [Compound 72, (E)-3-(6-bromopyridin-2-yl)-2-cyano-N-(1-(4-((4-methoxybenzyl)oxy)phenyl)cyclopentyl)acrylamide], the values for the inhibition at 5 µM in assay [1] and in assay [2] were 50 to 75% and ≥ 75%, respectively. Moreover, in assay [3], the “PARP cleavage % Inhibition” value was “A (A is ≧75% inhibition)”.
In the case of `CCOC(=O)CN1CCc2ccc(-c3cccc(/C=C(\C#N)C(=O)NC4(c5ccccc5)CCCC4)n3)cc2C1` [Compound 97, (E)-ethyl 2-(7-(6-(2-cyano-3-oxo-3-((1-phenylcyclopentyl)amino)prop-1-en-1-yl)pyridin-2-yl)-3,4-dihydroisoquinolin-2(1H)-yl)acetate], the inhibition at 5 µM in assay [1] was 25 to 50%; in assay [2], < 25%. Further, the “PARP cleavage % Inhibition” value in assay [3] is listed as “B (B is 50% to 75% inhibition)”.
`N#C/C(=C\c1cccc(Br)n1)C(=O)NC1(c2ccncc2)CCCC1` [Compound 3-2, (E)-3-(6-bromopyridin-2-yl)-2-cyano-N-(1-(pyridin-4-yl)cyclopentyl) acrylamide]: the figures for the inhibition at 5 µM in assay [1] and in assay [2] were 25 to 50% and 50 to 75%, respectively. In addition, the “PARP cleavage % Inhibition” value in assay [3] was “A (A is ≧75% inhibition)”.
Regarding `N#C/C(=C\c1cccc(C#CC2(O)CCCC2)n1)C(=O)NC1(c2ccccc2)CCCC1` [Compound 45], the results for the inhibition at 5 µM in assay [1] and in assay [2] were 50 to 75% and ≥ 75%, respectively. Moreover, the “PARP cleavage % Inhibition” value in assay [3] was “A (A is ≧75% inhibition)”.
On the same counts, the results for `N#C/C(=C\c1cccc(Br)n1)C(=O)NC1(c2cccnc2)CCCC1` [Compound 3-1, (E)-3-(6-bromopyridin-2-yl)-2-cyano-N-(1-(pyridin-3-yl)cyclopentyl) acrylamide] are < 25%, < 25% and “B (B is 50% to 75% inhibition)”.
On the same counts, the results for `CN(C(=O)/C(C#N)=C/c1cccc(Br)n1)C1(c2ccccc2)CCCC1` [Compound 2-82, (E)-3-(6-bromopyridin-2-yl)-2-cyano-N-methyl-N-(1-phenylcyclopentyl)acrylamide] are 50 to 75%, ≥ 75% and “A (A is ≧75% inhibition)”.
As for `N#C/C(=C\c1cccc(Br)n1)C(=O)NC1(c2ccc(Br)cc2)CCCC1` [Compound 15, (E)-N-(1-(4-bromophenyl)cyclopentyl)-3-(6-bromopyridin-2-yl)-2-cyanoacrylamide], the inhibition at 5 µM in assay [1] and in assay [2] was ≥ 75% throughout. The “PARP cleavage % Inhibition” value in assay [3] is given as “A (A is ≧75% inhibition)”.
For `CC(C)(C)OC(=O)c1cccc(-c2cccc(/C=C(\C#N)C(=O)NC3(c4ccccc4)CCCC3)n2)c1` [Compound 56, (E)-tert-butyl 3-(6-(2-cyano-3-oxo-3-((1-phenylcyclopentyl)amino)prop-1-en-1-yl)pyridin-2-yl)benzoate], the inhibition at 5 µM in assay [1] is 50 to 75%; in assay [2], ≥ 75%. Besides, the “PARP cleavage % Inhibition” value in assay [3] is “A (A is ≧75% inhibition)”.
On to `N#C/C(=C\c1cc(Br)ccn1)C(=O)NC1(c2ccccc2)CCCC1` [Compound 28, (E)-3-(4-bromopyridin-2-yl)-2-cyano-N-(1-phenylcyclopentyl)acrylamide], for which the inhibition at 5 µM in assay [1] and in assay [2] was < 25% each time. Moreover, in assay [3], the “PARP cleavage % Inhibition” value was “D (D is <25% inhibition)”.
Turning to `N#C/C(=C\c1ncc(Br)cc1Br)C(=O)NC1(c2ccc(C#CCN3CCOCC3)cc2)CCCC1` [Compound 50, (E)-2-cyano-3-(3,5-dibromopyridin-2-yl)-N-(1-(4-(3-morpholinoprop-1-yn-1-yl)phenyl)cyclopentyl)acrylamide], the inhibition at 5 µM in assay [1] and in assay [2] was ≥ 75% throughout. Moreover, the “PARP cleavage % Inhibition” value in assay [3] is listed as “A (A is ≧75% inhibition)”.

Values taken from US20170088520A1, “DEUBIQUITINASE INHIBITORS” (PharmAkea, Inc., priority 2014, published 2017).
